Test results from publication PMC10406827, “Targeted dosing for susceptible heteroresistant subpopulations may improve rational dosage regimen prediction for colistin in broiler chickens” (Scientific Reports, 2023).
Read-outs that look alike come from different tables or passages of the source. Marks after values point to notes of the source that are not given here. Where a SMILES comes first, the peptide text is derived from it. Bridges are numbered along the chain shown (N, C = ends). [ ]: non-standard residue; d: D form. The star is where a group is joined. X1 = CC[C@H](C)CCCCC(=O)*; Dab = NCC[C@H](N)C(=O)O

Experiments:
[1] = ref Bergen et al.[46], cited from earlier work
Experimental: For the bacteriological response, the cumulative area under the curve of the total bacterial count over 24 h (AUCbact24h) was used. Data were then log10 transformed for regression. As LOQ was set at 100 CFU/mL, it was considered that re-growth would not occur if the total bacterial population decreased to this value. PK/PD indices are conventionally determined using protein unbound (free; f) concentration. Bergen et al.[46] indicated practical equivalence of total and unbound colistin in CAMHB (unbound fractions of 0.96 and 0.95 at 10 and 30 mg/L respectively). Furthermore, as colistin binding ...

[2] = 1-compartment population intestinal PK model of colistin; format: in vivo, broiler chickens; conditions: for Amount of colistin base transit through the small intestine / Amount of colistin sulphate transit through the small intestine: Eq. (1)
Experimental: Colistin (converted in mg/kg BW) was deposited in a dosing compartment (crop), either as a single bolus input representing an oral-gavage administration or as a daily zero-order input lasting 24 h representing a continuous dose via drinking water. The colistin content pooled jejunum and ileum content (expressed as mg colistin/kg intestinal content) was assumed to be well mixed and was fitted with a one-compartment model. The model was parametrised with 3 parameters: “clearance” that is here an intestinal flow rate (expressed in kg intestinal content/kg BW h^−1), “volume of distribution”, expressed in kg intestinal content/kg BW) and absorption rate constant for extravascular administration (Ka expressed in h^−1).
Between subject variability (BSV) was applied to the clearance (Cl) described using an exponential model, as in the following general equation: Pi=tvP∗exp(ηPi) where tvP is the typical value of the parameter within the population and the random parameter ηPi (eta) represents the deviation from the typical value for the ith individual. Etas are assumed normally distributed with a mean of 0 and a variance of ω^2.
For model evaluation, a significant decrease (> 6.635 corresponding to p < 0.01 for one degree of freedom) in the Bayesian information criterion (BIC) as well as observation of observed vs. population, individual predicted concentrations plots, and visual predictive checks (VPC) were utilized. All concentrations lower than the LOQ of the bioanalytical method (1.1 mg/kg) were considered as censored and managed with the M3 approach and using the Laplace engine by Phoenix™ v8.3.0.5005 (Certara, St. Louis, Missouri). Residual variability was described with a multiplicative error model, providing optimal fit compared to additive or additive/multiplicative models. Residual variability was low due to the single random effect on the clearance considering only a single-point for each bird (due to the nature of the destructive sampling) and the near normal distribution of the Etas. The final population model was evaluated using a Visual Predictive Check (VPC; n = 300) that compares observed with predicted quantiles (10th, 50th and 90th percentiles).

[3] = test system: E. coli N100; mcr-negative; conditions: cited from earlier work
Text: (§1) Supplement 41598_2023_39727_MOESM1_ESM.docx, table 2: Supplementary Table 2: Typical value (tv) and median parameter estimates and 95% confidence intervals of the semi-mechanistic model. | column: Typical value (tv) estimate; Median (Bootstrap) estimate

E. coli 120h_B3_5; mcr-1 = conditions: cited from earlier work
Text: as §1

[4] = test system: mcr-negative and mcr-positive E. coli isolates; conditions: cited from earlier work
Text: as §1

E. coli population = conditions: 75,000 IU/kg BW/day for 3-days; cited from earlier work
Text: (§2) In this situation treatment is used to lower the number of resident E. coli in the gastrointestinal tract and control gut overgrowth, in a similar fashion to selective decontamination[37],[38]. As the outcome is not to achieve complete eradication (gut sterilisation), a lower effect than predicted by the PK/PD index critical value may be enough to reduce the bacterial burden within the gastrointestinal tract.

[5] = 75,000 IU/kg BW/day for 3-days; cited from earlier work
Text: as §2

[6] = Colistin concentration in luminal intestinal (jejunum and ileum) content, UHPLC-MS/MS; format: in vivo, Ross 308 broiler chickens; conditions: Ross 308 broiler; for tissue level at time at 54 h: po, jejunum and ileum content, 4 birds per timepoint, read-out: Geometric mean colistin concentration in luminal intestinal content
Experimental: Pharmacokinetic data from in vivo clinical and supra-clinical doses via drinking water and oral gavage were collected as follows. Birds were provided a 14-h photoperiod aligned with onset of dosing (0 h) at 07:00. Birds were housed together upon arrival and separated at 13-days into the following dosing groups 75,000 IU/kg oral gavage (n = 17), 150,000 IU/kg oral gavage (n = 17), 75,000 IU/kg/day drinking water (n = 38), 100,000 IU/kg/day drinking water (n = 38), and 150,000 IU/kg/day drinking water (n = 38), the remaining birds constituted an untreated control group (n = 27) housed in another room. Colistin was administered as a single oral gavage via manual syringe directly into the crop, with the volume calculated based on bird weight immediately prior to dosing. For colistin administration via drinking water, dose was calculated based on average bird weight and water consumption measured the preceding day. It was refreshed every 24 h over the 3-day dosing. The “real” dose received every 24 h was back calculated based on measured water consumption for each dosing period.
For administration via drinking water, 4 birds were sampled at each of the following timepoints pre-dose (0 h), during-dose (12, 36 and 54 h) and post-dose (72, 75, 76, 78, 84 and 96 h). Following oral gavage, 2 birds were sampled at each of the following timepoints 0 h (pre-dose), 1 h, 3 h, 6 h, 12 h, and 24 h (post-dose). Birds were sacrificed through cervical dislocation. The whole small intestine was excised from the duodenum to the large intestine, including the caeca, using individually wrapped and sterilised sets of dissection apparatus were used to avoid cross-contamination between birds. The jejunum and ileum were resected (between proximal ligature after duodenum, and distal ligature before the large intestine) and luminal intestinal content (LIC) was collected as an homogenous sample extracted from the small intestine via peristaltic massage in a proximal-to-distal direction as previously described, with the jejunum/ileum representing the principle compartment for potentially pathogenic E. coli (as compared to the large intestine). All samples were stored at − 80 °C prior to further analysis for no-more than 3 months. Following a previously validated method, colistin was extracted from the matrix using solid-phase extraction with a methanol:water (1:2; v/v) solution. Polymyxin B1 was used as an internal standard. Colistin A and colistin B, (main components of colistin), were separated, detected and measured using ultra-high-performance liquid chromatography coupled with tandem mass spectrometry (UHPLC-MS/MS). Total colistin was calculated as the ratio of the sum of peak areas of colistin A and B over the polymyxin B1 peak area.

E. coli = conditions: ref EUCAST; cited from earlier work
Experimental: Colistin is used in chickens for the treatment and metaphylaxis (following confirmation of disease within the flock) of susceptible (ECOFF = 2 mg/L) gastro-intestinal non-invasive E. coli infections. The dose recommended for administration via drinking water is 75,000 IU of colistin (as sulphate) per kg body weight per day for 3–5 consecutive days in Europe. As colistin is not absorbed from the gastrointestinal tract, its effect is exerted locally within the intestinal lumen and the wall of the intestine. As such, there is an opportunity to develop a PK model to predict the gut concentration t ...

[7] = Colistin activity loss after centrifugation of medium (colispot microbiological assay); format: in vitro ADME; conditions: colispot method
[8] = targeted dose 100,000 IU/kg BW/day
[9] = targeted dose 150,000 IU/kg BW/day
[10] = typical value, 1-compartment intestinal PK model

CC[C@H](C)CCCCC(=O)N[C@@H](CCN)C(=O)N[C@H](C(=O)N[C@@H](CCN)C(=O)N[C@H]1CCNC(=O)[C@H]([C@@H](C)O)NC(=O)[C@H](CCN)NC(=O)[C@H](CCN)NC(=O)[C@H](CC(C)C)NC(=O)[C@@H](CC(C)C)NC(=O)[C@H](CCN)NC1=O)[C@@H](C)O [colistin, colistin sulphate] (X1-[Dab]T[Dab][Dab][Dab][dL]L[Dab][Dab]T; lactam 4-C)
Unbound fraction of colistin ([1]; in CAMHB at 10 mg/L): 0.96
Unbound fraction of colistin ([1]; in CAMHB at 30 mg/L): 0.95
Overall MTT in digestive tract (mean transit time crop to jejunum) ([2]; secondary parameter): 4.5 h
ka HL (entry rate half-life) ([2]; secondary parameter): 3.14 h
Amount of colistin base transit through the small intestine ([2]; targeted dose 75,000 IU/kg BW/day): 70,534 IU/kg BW/day
Amount of colistin base transit through the small intestine [2, 8]: 91,627 IU/kg BW/day
Amount of colistin sulphate transit through the small intestine [2, 8]: 3.05 mg/kg BW/day
Amount of colistin base transit through the small intestine [2, 9]: 139,935 IU/kg BW/day
Amount of colistin sulphate transit through the small intestine [2, 9]: 4.66 mg/kg BW/day
Cl (intestinal clearance), estimate (between subject variability %) [2, 10]: 29.1 (40.5%) g intestinal content/kg BW/h
V (intestinal volume of distribution) [2, 10]: 5.14 g intestinal content/kg BW
ka (entry rate constant from crop to jejunum) [2, 10]: 0.221 h⁻¹
F2 (potentiation factor for Kdrug on S1), typical value (tv) estimate ([3]; for mcr-negative isolates): 12.66 scalar
Emax (S1), typical value (tv) estimate ([3]; negative mcr isolates, Emax (S2) x F2): 34.12** h^-1
EC50_S1, typical value (tv) estimate ([3]; sub-population S1, reproduced PD parameters): 0.083 µg/mL
EC50_S2, typical value (tv) estimate ([3]; sub-population S2): 0.115 µg/mL
F2 (potentiation factor for Kdrug on S1), typical value (tv) estimate (E. coli 120h_B3_5; mcr-1; for mcr-positive isolates, calculated from covariate parameter): 3.76* scalar
Emax (S1), typical value (tv) estimate (E. coli 120h_B3_5; mcr-1; mcr-positive isolates, Emax (S2) x F2): 10.13** h^-1
EC50_S1, typical value (tv) estimate (E. coli 120h_B3_5; mcr-1; sub-population S1): 2.760 µg/mL
EC50_S2, typical value (tv) estimate (E. coli 120h_B3_5; mcr-1; sub-population S2): 2.174 µg/mL
Emax (S2), typical value (tv) estimate ([4]; both mcr-negative and mcr-positive isolates, maximal increase in kill effect): 2.69 h⁻¹
gamma_S1 (Hill coefficient), typical value (tv) estimate ([4]; sub-population S1): 4.09 scalar
gamma_S2 (Hill coefficient), median (bootstrap) estimate ([4]; sub-population S2): 3.80 scalar
gamma_S2 (Hill coefficient), typical value (tv) estimate ([4]; sub-population S2): 3.22 scalar
Reduction in the E. coli population (E. coli population): ~1000 fold
Maximum intestinal concentrations [5]: greater than 5 mg/kg
tissue level at time at 1 h ([6]; 75000 IU/kg, oral gavage 75,000 IU/kg, after 1 h, 2 birds per timepoint): 21200 ng/g
tissue level at time at 3 h ([6]; 150000 IU/kg, oral gavage 150,000 IU/kg, after 3 h, 2 birds per timepoint): 45600 ng/g
tissue level at time at 54 h ([6]; 75000 IU/kg/day, 75,000 IU/kg via drinking water): 4890 ng/g
tissue level at time at 54 h ([6]; 100000 IU/kg/day, 100,000 IU/kg via drinking water): 6660 ng/g
tissue level at time at 54 h ([6]; 150000 IU/kg/day, 150,000 IU/kg via drinking water): 8600 ng/g
ECOFF (E. coli): 2 mg/L
Colistin activity loss following centrifugation ([7]; from CAMHB, E. coli ATCC 25922 bacterial lawn (microbiological assay, not LCMS)): 2%
Colistin activity loss following centrifugation ([7]; from IGM (intestinal growth medium), binding to particulate matter, E. coli ATCC 25922 bacterial lawn): 27%
